Read-outs that look alike come from different tables or passages of the source.
How the values were obtained:
MMP-2 = biological target: T1, MMP-2 (Homo sapiens, UniProt P08253); test: MMP-2 inhibition assay (fluorogenic peptide substrate); assay type: biochemical
T1 construct: purchased Sino Biological 10082-HNAH
T1 sequence (P08253 110-660): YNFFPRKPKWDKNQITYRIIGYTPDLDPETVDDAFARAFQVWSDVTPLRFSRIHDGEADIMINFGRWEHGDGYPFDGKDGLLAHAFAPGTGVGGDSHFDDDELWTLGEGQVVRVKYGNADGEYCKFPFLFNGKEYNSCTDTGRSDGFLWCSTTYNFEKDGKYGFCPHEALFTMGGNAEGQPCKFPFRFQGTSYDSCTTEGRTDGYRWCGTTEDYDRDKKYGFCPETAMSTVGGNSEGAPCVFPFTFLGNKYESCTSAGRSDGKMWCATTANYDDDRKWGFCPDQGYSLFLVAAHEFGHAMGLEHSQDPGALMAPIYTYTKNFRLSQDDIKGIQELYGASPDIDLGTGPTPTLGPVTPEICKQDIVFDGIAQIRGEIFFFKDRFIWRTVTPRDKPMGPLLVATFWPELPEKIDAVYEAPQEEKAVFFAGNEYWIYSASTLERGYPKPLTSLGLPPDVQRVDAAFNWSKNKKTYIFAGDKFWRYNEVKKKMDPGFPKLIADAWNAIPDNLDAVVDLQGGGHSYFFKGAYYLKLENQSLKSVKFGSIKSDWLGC
In short: (§1)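 Hydrolysis of DNP-Pro-Leu-Gly-Met-Trp-Ser-Arg (25 μM final) was tracked kinetically at em 360 nm over 30 min. Enzymes, APMA-activated and at 10 nM (MMP-9) or 6.5 nM (MMP-2) final, sat 30 min at RT with inhibitor in pH 7.5 Tris buffer with CaCl2 and Brij 35 first. Logistic fitting of Vmax against concentration gave IC50, in triplicate.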

MMP-9 = biological target: T2, MMP-9 (Homo sapiens, UniProt P14780); test: MMP-9 inhibition assay (fluorogenic peptide substrate); assay type: biochemical; design: remaining enzyme activity (% of control): scale not given here
T2 construct: purchased Sino Biological 10327-HNAH
In short: as §1

[1] = MMP-2; concentration 1219.00 µM
[2] = mean ± SE; n.d: not detected; Fig. 5d unit inferred, µM; read-out: IC50
[3] = mean ± SE; n.d: not detected; Fig. 5e prints no unit, µM; read-out: IC50
[4] = Figure 5d; fragment combination joined by linker; n.d: not detected; read-out: MMP2 IC50
[5] = Figure 5d; fragment combination joined by linker; n.d: not detected; read-out: MMP9 IC50

T2 sequence (P14780 107-707 limits assumed): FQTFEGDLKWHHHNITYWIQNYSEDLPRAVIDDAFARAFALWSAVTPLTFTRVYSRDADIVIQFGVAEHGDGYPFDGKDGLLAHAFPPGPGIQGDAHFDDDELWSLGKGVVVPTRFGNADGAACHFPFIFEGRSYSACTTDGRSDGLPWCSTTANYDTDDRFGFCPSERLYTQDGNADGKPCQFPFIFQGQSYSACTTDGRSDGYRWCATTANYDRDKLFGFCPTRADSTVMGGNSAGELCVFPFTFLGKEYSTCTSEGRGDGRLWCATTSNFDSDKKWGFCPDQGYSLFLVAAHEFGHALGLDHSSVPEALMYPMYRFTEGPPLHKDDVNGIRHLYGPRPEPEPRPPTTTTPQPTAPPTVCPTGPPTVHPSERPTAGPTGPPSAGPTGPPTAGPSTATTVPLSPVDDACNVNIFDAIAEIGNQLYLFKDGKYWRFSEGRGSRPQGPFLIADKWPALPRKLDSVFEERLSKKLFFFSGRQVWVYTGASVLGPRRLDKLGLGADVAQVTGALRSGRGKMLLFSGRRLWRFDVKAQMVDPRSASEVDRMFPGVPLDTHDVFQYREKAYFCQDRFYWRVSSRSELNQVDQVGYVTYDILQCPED

Compound: Cn1c(O)nc2cc(C(=O)NCCCCCCCCNC(=O)CNC(=O)NC34CC5CC(CC(C5)C3)C4)cnc21 [66+826 Linker 4]
- remaining activity (%) (MMP-2; MMP-2; concentration 0.12 µM): 90.87
- remaining activity (%) (MMP-2; MMP-2; concentration 0.49 µM): 97.75
- remaining activity (%) (MMP-2; MMP-2; concentration 1.95 µM): 98.21
- remaining activity (%) (MMP-2; MMP-2; concentration 7.81 µM): 97.67
- remaining activity (%) (MMP-2; MMP-2; concentration 31.25 µM): 98.57
- remaining activity (%) (MMP-2; MMP-2; concentration 125.00 µM): 99.42
- remaining activity (%) (MMP-2; MMP-2; concentration 500.00 µM): 77.03
- remaining enzyme activity (% of control) (MMP-9; MMP-9; concentration 0.12 µM): 93.59
- remaining enzyme activity (% of control) (MMP-9; MMP-9; concentration 0.49 µM): 93.14
- remaining enzyme activity (% of control) (MMP-9; MMP-9; concentration 1.95 µM): 89.16
- remaining enzyme activity (% of control) (MMP-9; MMP-9; concentration 7.81 µM): 98.12
- remaining enzyme activity (% of control) (MMP-9; MMP-9; concentration 31.25 µM): 95.00
- remaining enzyme activity (% of control) (MMP-9; MMP-9; concentration 125.00 µM): 90.00
- remaining enzyme activity (% of control) (MMP-9; MMP-9; concentration 500.00 µM): 85.00

Compound: O=C(Cn1cnc2c(oc3ccccc32)c1=O)NCc1c[nH]nn1 [182+787 Linker 1]
- remaining activity (%) (MMP-2; MMP-2, concentration 0.0156 µM): 89.30
- remaining activity (%) (MMP-2; MMP-2, concentration 0.08 µM): 95.29
- remaining activity (%) (MMP-2; MMP-2, concentration 0.39 µM): 92.88
- remaining activity (%) (MMP-2; MMP-2, concentration 1.95 µM): 92.98
- remaining activity (%) (MMP-2; MMP-2; concentration 9.75 µM): 84.05
- remaining activity (%) (MMP-2; MMP-2; concentration 48.76 µM): 61.94
- remaining activity (%) (MMP-2; MMP-2; concentration 243.80 µM): 24.12
- remaining activity (%) (MMP-2; [1]): 0.00
- IC50 (MMP-2; [2]): 95.5 ± 35.1 µM
- remaining enzyme activity (% of control) (MMP-9; MMP-9, concentration 0.08 µM): 89.67
- remaining enzyme activity (% of control) (MMP-9; MMP-9, concentration 0.39 µM): 88.12
- remaining enzyme activity (% of control) (MMP-9; MMP-9, concentration 1.95 µM): 85.78
- remaining enzyme activity (% of control) (MMP-9; MMP-9, concentration 9.75 µM): 75.76
- remaining enzyme activity (% of control) (MMP-9; MMP-9, concentration 48.76 µM): 77.96
- remaining enzyme activity (% of control) (MMP-9; MMP-9, concentration 243.80 µM): 22.66
- remaining enzyme activity (% of control) (MMP-9; MMP-9, concentration 1219.00 µM): 0.00
- IC50 (MMP-9; [3]): 143 ± 32.6 µM

Compound: Cc1cc(=O)[nH]c(-n2nc(C)c(CCC(=O)NCCCCCCCCNC(=O)c3cnc4c(c3)nc(O)n4C)c2C)n1 [693+826 Linker 4]
- remaining activity (%) (MMP-2; MMP-2; concentration 0.12 µM): 91.52
- remaining activity (%) (MMP-2; MMP-2; concentration 0.49 µM): 100.66
- remaining activity (%) (MMP-2; MMP-2; concentration 1.95 µM): 95.29
- remaining activity (%) (MMP-2; MMP-2; concentration 7.81 µM): 98.79
- remaining activity (%) (MMP-2; MMP-2; concentration 31.25 µM): 92.06
- remaining activity (%) (MMP-2; MMP-2; concentration 125.00 µM): 94.34
- remaining activity (%) (MMP-2; MMP-2; concentration 500.00 µM): 70.32
- remaining enzyme activity (% of control) (MMP-9; MMP-9; concentration 0.12 µM): 100.31
- remaining enzyme activity (% of control) (MMP-9; MMP-9; concentration 0.49 µM): 99.68
- remaining enzyme activity (% of control) (MMP-9; MMP-9; concentration 1.95 µM): 96.18
- remaining enzyme activity (% of control) (MMP-9; MMP-9; concentration 7.81 µM): 93.00
- remaining enzyme activity (% of control) (MMP-9; MMP-9; concentration 31.25 µM): 90.00
- remaining enzyme activity (% of control) (MMP-9; MMP-9; concentration 125.00 µM): 80.00
- remaining enzyme activity (% of control) (MMP-9; MMP-9; concentration 500.00 µM): 69.08

Compound: Cc1cc(=O)[nH]c(-n2nc(C)c(CCC(=O)NCCOCCOCCNC(=O)c3cncc(O)c3)c2C)n1 [693+828 Linker 10]
- remaining activity (%) (MMP-2; MMP-2; concentration 0.0156 µM): 88.17
- remaining activity (%) (MMP-2; MMP-2; concentration 0.08 µM): 88.67
- remaining activity (%) (MMP-2; MMP-2; concentration 0.39 µM): 96.33
- remaining activity (%) (MMP-2; MMP-2; concentration 1.95 µM): 93.57
- remaining activity (%) (MMP-2; MMP-2; concentration 9.75 µM): 94.74
- remaining activity (%) (MMP-2; MMP-2; concentration 48.76 µM): 85.76
- remaining activity (%) (MMP-2; MMP-2; concentration 243.80 µM): 33.24
- remaining activity (%) (MMP-2; [1]): 9.64
- IC50 (MMP-2; [2]): 186 ± 15.7 µM
- remaining enzyme activity (% of control) (MMP-9; MMP-9; concentration 0.08 µM): 97.89
- remaining enzyme activity (% of control) (MMP-9; MMP-9; concentration 0.39 µM): 99.26
- remaining enzyme activity (% of control) (MMP-9; MMP-9; concentration 1.95 µM): 97.73
- remaining enzyme activity (% of control) (MMP-9; MMP-9; concentration 9.75 µM): 98.89
- remaining enzyme activity (% of control) (MMP-9; MMP-9; concentration 48.76 µM): 84.90
- remaining enzyme activity (% of control) (MMP-9; MMP-9; concentration 243.80 µM): 42.77
- remaining enzyme activity (% of control) (MMP-9; MMP-9; concentration 1219.00 µM): 10.96
- IC50 (MMP-9; [3]): 201 ± 21.3 µM

Compound: Cc1cc(=O)[nH]c(-n2nc(C)c(CCC(=O)NCCSCC(=O)NCc3c[nH]nn3)c2C)n1 [693_787 24]
- IC50 (MMP-2; [4]): 149 µM
- IC50 (MMP-9; [5]): 270 µM

Compound: Cn1c(O)nc2cc(C(=O)NCCNC(=O)CSCCNC(=O)Cn3cnc4c(oc5ccccc54)c3=O)cnc21 [182+826 Linker 24]
- remaining activity (%) (MMP-2; MMP-2, concentration 0.09 µM): 97.26
- remaining activity (%) (MMP-2; MMP-2, concentration 0.36 µM): 110.41
- remaining activity (%) (MMP-2; MMP-2, concentration 1.46 µM): 108.70
- remaining activity (%) (MMP-2; MMP-2, concentration 5.83 µM): 101.42
- remaining activity (%) (MMP-2; MMP-2, concentration 23.31 µM): 109.20
- remaining activity (%) (MMP-2; MMP-2, concentration 93.25 µM): 102.62
- remaining activity (%) (MMP-2; MMP-2, concentration 373.00 µM): 72.08
- remaining enzyme activity (% of control) (MMP-9; MMP-9, concentration 0.09 µM): 91.31
- remaining enzyme activity (% of control) (MMP-9; MMP-9, concentration 0.36 µM): 105.17
- remaining enzyme activity (% of control) (MMP-9; MMP-9, concentration 1.46 µM): 94.51
- remaining enzyme activity (% of control) (MMP-9; MMP-9, concentration 5.83 µM): 85.81
- remaining enzyme activity (% of control) (MMP-9; MMP-9, concentration 23.31 µM): 80.00
- remaining enzyme activity (% of control) (MMP-9; MMP-9, concentration 93.25 µM): 70.35
- remaining enzyme activity (% of control) (MMP-9; MMP-9, concentration 373.00 µM): 44.33
- IC50 (MMP-9; [3]): 281 ± 97.2 µM

Compound: Cc1cc(=O)[nH]c(-n2nc(C)c(CCC(=O)NCCNC(=O)CC(=O)/C=C/CCCCNC(=O)CCC(=O)NCc3c[nH]nn3)c2C)n1 [693_787 12]
- IC50 (MMP-2; [4]): 68.4 µM
- IC50 (MMP-9; [5]): 45.6 µM

Source: paper PMC10023787, “Trio-pharmacophore DNA-encoded chemical library for simultaneous selection of fragments and linkers” (Nature Communications, 2023)
